Experiments:
[1] = test system: IFNβ induced STAT1 phosphorylation in BMDMs; assay: IFNβ induced STAT1 phosphorylation in macrophages; assay type: cell-based, mouse; conditions: wild type BMDMs, 10 μM inhibitor 2 h, 10 ng/ml IFNβ
Description: (A) BMDMs were isolated from wild type mice. Cells were incubated with the indicated inhibitors in μM for 2 h before stimulation with 10 ng/ml IL-4 for 30 min. The levels of phosphorylated STAT6 were then determined by immunoblotting. (B) As (A) except cells were stimulated 10 ng/ml GM-CSF and the levels of phosphorylated STAT5 determined. (C) As (A) except cells were stimulated 10 ng/ml IL-10 and the levels of phosphorylated STAT3 determined. (D) As (A) except cells were stimulated 10 ng/ml IFNβ and the levels of phosphorylated STAT1 determined. For A–D, levels of ERK1/2 were determined as a loading control.
Bone marrow derived macrophages (BMDMs) were cultured as described. Briefly, bone marrow was flushed in PBS from the femurs and tibias of mice. […]
Cells were lysed directly into SDS sample buffer and aliquots run on 10% polyacrylamide gels using standard methods. Proteins were transferred onto nitrocellulose membranes, and specific proteins were detected by immunoblotting. […] Bands were detected using Clarity ECL reagents from BioRad and imaged on a Licor Odyssey Fc system. Quantification was carried out using Licor Image Studio software. After correction for the ERK1/2 levels to account for loading differences, percentage inhibition was calculated relative to the IL-4 stimulated condition. IC50 values were calculated using the same methods as for the in vitro IC50 values.

panel of 139 kinases = assay: In vitro selectivity screen, whole panel; assay type: biochemical; conditions: 1 μM, panel of 139 kinases in vitro
Description: (§1) For the in vitro kinase assay, JAK3 (5–20 mU diluted in 50 mM Tris pH 7.5, 0.1 mM EGTA, 0.05% β-mercaptoethanol, 1 mg/ml BSA) was assayed against PDKtide ([…]) in a final volume of 25.5 µl containing 50 mM Tris pH 7.5, 0.1 mM EGTA, 0.05% β-mercaptoethanol, 100 µM substrate peptide, 10 mM magnesium acetate and 0.02 mM [33P-γ-ATP] (50–1000 cpm/pmole) and incubated for 30 min at room temperature. Assays were started by the addition of the ATP and stopped by addition of 5 µl of 0.5 M (3%) orthophosphoric acid and then harvested onto P81 Unifilter plates with a wash buffer of 50 mM orthophosphoric acid. To determine the Km for ATP, assays were run using 1, 5, 10, 20, 50, 100, 200, 400, 500 μM ATP and Km derived by non-linear regression fitting to the Michaelis–Menten equation v = Vmax[S]/(Km + [S]). IC50 values for inhibitors via non-linear regression using a parameter model: Y = Bottom + (Top–Bottom)/(1 + (IC50/X)^HillSlope). Non-linear regression was carried out in Prism (version 8). In vitro selectivity screen was carried out as described previously.

BTK = BTK (Homo sapiens, UniProt Q06187); assay: Selectivity screen BTK; assay type: biochemical; conditions: 1 µM inhibitor, mean
CDK2-Cyclin A = CDK2-Cyclin A (Homo sapiens, UniProt P24941); assay: Selectivity screen CDK2-Cyclin A; assay type: biochemical; conditions: 1 µM inhibitor, mean
CHK1 = CHK1 (Homo sapiens, UniProt O14757); assay: Selectivity screen CHK1; assay type: biochemical; conditions: 1 µM inhibitor, mean
Description: as §1

DYRK1A = DYRK1A (Homo sapiens, UniProt Q13627); assay: Selectivity screen DYRK1A; assay type: biochemical; conditions: 1 µM inhibitor, mean
Description: as §1

DYRK2 = DYRK2 (Homo sapiens, UniProt Q92630); assay: Selectivity screen DYRK2; assay type: biochemical; conditions: 1 µM inhibitor, mean
Description: as §1

ERK2 = ERK2 (Homo sapiens, UniProt P28482); assay: Selectivity screen ERK2; assay type: biochemical; conditions: 1 µM inhibitor, mean
Description: as §1

ERK8 = ERK8 (Homo sapiens, UniProt Q8TD08); assay: Selectivity screen ERK8; assay type: biochemical; conditions: 1 µM inhibitor, mean
Description: as §1

GCK = GCK (Homo sapiens, UniProt Q12851); assay: Selectivity screen GCK; assay type: biochemical; conditions: 1 µM inhibitor, mean
Description: as §1

IGF-1R = IGF-1R (Homo sapiens, UniProt P08069); assay: Selectivity screen IGF-1R; assay type: biochemical; conditions: 1 µM inhibitor, mean
Description: as §1

JNK1 = JNK1 (Homo sapiens, UniProt P45983); assay: Selectivity screen JNK1; assay type: biochemical; conditions: 1 µM inhibitor, mean
Description: as §1

JNK2 = JNK2 (Homo sapiens, UniProt P45984); assay: Selectivity screen JNK2; assay type: biochemical; conditions: 1 µM inhibitor, mean
Description: as §1

PAK5 = PAK5 (Homo sapiens, UniProt Q9P286); assay: Selectivity screen PAK5; assay type: biochemical; conditions: 1 µM inhibitor, mean
Description: as §1

PAK6 = PAK6 (Homo sapiens, UniProt Q9NQU5); assay: Selectivity screen PAK6; assay type: biochemical; conditions: 1 µM inhibitor, mean
Description: as §1

PHK = assay: Selectivity screen PHK; assay type: biochemical; conditions: 1 µM inhibitor, mean
Description: as §1

ROCK 2 = ROCK 2 (Homo sapiens, UniProt O75116); assay: Selectivity screen ROCK 2; assay type: biochemical; conditions: 1 µM inhibitor, mean
Description: as §1

SIK2 = SIK2 (Homo sapiens, UniProt Q9H0K1); assay: Selectivity screen SIK2; assay type: biochemical; conditions: 1 µM inhibitor, mean
Description: as §1

TAK1 = TAK1 (Homo sapiens, UniProt O43318); assay: Selectivity screen TAK1; assay type: biochemical; conditions: 1 µM inhibitor, mean
Description: as §1

TGFBR1 = TGFBR1 (Homo sapiens, UniProt P36897); assay: Selectivity screen TGFBR1; assay type: biochemical; conditions: 1 µM inhibitor, mean
Description: as §1

TSSK1 = TSSK1 (Homo sapiens, UniProt Q9BXA7); assay: Selectivity screen TSSK1; assay type: biochemical; conditions: 1 µM inhibitor, mean
Description: as §1

TTK = TTK (Homo sapiens, UniProt P33981); assay: Selectivity screen TTK; assay type: biochemical; conditions: 1 µM inhibitor, mean
Description: as §1

WNK1 = WNK1 (Homo sapiens, UniProt Q9H4A3); assay: Selectivity screen WNK1; assay type: biochemical; conditions: 1 µM inhibitor, mean
Description: as §1

YES1 = YES1 (Homo sapiens, UniProt P07947); assay: Selectivity screen YES1; assay type: biochemical; conditions: 1 µM inhibitor, mean
Description: as §1

PAK6, sequence (Q9NQU5 whole entry): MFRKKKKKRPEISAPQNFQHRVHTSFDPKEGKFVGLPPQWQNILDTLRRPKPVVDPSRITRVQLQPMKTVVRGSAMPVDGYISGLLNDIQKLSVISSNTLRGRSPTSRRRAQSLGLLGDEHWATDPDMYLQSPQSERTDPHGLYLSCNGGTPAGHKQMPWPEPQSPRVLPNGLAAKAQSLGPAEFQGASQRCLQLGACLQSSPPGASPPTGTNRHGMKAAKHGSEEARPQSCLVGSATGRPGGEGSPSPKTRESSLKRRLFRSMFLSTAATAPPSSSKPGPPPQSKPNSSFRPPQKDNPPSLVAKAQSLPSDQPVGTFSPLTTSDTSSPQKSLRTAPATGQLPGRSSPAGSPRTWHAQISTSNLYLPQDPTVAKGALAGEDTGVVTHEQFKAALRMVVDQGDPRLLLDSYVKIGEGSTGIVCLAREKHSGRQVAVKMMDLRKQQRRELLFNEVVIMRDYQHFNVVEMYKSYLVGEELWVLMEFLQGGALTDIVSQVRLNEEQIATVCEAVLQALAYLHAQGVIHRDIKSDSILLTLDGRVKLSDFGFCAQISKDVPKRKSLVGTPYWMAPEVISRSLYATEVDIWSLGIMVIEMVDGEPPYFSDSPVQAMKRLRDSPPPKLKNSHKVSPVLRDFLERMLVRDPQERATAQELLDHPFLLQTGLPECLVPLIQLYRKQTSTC
TTK, sequence (P33981 whole entry): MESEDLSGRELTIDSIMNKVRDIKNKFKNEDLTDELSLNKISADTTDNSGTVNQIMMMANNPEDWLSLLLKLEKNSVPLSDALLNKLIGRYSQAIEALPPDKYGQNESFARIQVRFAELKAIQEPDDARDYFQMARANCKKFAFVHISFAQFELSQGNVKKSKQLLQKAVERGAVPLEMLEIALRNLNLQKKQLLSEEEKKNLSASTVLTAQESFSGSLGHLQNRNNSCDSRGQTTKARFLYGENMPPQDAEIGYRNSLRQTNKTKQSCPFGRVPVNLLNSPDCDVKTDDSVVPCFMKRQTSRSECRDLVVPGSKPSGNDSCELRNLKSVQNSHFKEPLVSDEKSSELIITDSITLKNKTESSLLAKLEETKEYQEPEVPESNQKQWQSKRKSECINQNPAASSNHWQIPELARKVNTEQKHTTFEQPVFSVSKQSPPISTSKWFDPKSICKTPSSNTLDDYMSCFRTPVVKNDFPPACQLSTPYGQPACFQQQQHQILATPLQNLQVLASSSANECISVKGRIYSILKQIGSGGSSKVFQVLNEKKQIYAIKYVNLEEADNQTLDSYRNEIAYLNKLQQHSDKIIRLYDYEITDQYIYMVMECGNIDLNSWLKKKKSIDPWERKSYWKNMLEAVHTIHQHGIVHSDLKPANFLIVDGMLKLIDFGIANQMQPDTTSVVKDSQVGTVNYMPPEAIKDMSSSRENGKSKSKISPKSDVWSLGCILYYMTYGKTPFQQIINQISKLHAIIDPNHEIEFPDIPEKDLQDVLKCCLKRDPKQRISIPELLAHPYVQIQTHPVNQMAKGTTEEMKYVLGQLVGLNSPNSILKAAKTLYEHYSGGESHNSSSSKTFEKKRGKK
YES1, sequence (P07947 whole entry): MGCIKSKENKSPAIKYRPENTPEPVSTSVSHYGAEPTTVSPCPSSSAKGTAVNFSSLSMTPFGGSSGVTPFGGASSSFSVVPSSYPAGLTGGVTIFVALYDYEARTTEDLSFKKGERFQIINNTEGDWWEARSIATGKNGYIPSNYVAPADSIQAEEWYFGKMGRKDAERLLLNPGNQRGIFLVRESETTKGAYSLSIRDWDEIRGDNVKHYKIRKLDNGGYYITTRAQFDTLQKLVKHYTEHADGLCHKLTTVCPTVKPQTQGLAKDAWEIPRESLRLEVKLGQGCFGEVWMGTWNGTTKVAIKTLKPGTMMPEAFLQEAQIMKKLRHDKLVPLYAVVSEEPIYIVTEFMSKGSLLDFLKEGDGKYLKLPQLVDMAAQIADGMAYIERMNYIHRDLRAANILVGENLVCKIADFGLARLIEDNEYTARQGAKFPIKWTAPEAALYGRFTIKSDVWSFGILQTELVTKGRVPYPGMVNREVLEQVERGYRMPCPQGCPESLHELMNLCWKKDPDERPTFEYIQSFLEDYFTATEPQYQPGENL
ERK2, sequence (P28482 whole entry): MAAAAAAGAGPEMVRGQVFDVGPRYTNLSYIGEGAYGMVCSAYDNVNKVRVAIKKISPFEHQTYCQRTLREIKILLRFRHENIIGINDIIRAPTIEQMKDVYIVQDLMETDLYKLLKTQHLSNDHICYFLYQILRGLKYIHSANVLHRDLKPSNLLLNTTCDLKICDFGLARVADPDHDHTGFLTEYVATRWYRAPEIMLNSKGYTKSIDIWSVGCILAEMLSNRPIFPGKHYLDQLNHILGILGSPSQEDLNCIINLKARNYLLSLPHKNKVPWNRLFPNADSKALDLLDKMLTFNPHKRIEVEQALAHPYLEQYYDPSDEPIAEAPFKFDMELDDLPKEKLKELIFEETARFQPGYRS
CHK1, sequence (O14757 whole entry): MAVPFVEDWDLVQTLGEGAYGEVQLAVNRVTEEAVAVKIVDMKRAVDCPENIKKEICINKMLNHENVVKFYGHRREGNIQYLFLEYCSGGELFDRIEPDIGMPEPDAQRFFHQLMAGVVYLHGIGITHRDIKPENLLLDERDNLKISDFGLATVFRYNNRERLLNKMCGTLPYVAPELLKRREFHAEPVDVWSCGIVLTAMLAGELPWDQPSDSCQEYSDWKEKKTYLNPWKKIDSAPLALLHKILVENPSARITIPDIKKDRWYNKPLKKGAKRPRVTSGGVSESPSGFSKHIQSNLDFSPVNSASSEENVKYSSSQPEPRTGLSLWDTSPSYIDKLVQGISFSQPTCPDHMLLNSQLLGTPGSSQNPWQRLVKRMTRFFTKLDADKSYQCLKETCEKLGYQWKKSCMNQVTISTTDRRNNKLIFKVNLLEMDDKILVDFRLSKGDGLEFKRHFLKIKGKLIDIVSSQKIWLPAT
IGF-1R, sequence (P08069 31-1367): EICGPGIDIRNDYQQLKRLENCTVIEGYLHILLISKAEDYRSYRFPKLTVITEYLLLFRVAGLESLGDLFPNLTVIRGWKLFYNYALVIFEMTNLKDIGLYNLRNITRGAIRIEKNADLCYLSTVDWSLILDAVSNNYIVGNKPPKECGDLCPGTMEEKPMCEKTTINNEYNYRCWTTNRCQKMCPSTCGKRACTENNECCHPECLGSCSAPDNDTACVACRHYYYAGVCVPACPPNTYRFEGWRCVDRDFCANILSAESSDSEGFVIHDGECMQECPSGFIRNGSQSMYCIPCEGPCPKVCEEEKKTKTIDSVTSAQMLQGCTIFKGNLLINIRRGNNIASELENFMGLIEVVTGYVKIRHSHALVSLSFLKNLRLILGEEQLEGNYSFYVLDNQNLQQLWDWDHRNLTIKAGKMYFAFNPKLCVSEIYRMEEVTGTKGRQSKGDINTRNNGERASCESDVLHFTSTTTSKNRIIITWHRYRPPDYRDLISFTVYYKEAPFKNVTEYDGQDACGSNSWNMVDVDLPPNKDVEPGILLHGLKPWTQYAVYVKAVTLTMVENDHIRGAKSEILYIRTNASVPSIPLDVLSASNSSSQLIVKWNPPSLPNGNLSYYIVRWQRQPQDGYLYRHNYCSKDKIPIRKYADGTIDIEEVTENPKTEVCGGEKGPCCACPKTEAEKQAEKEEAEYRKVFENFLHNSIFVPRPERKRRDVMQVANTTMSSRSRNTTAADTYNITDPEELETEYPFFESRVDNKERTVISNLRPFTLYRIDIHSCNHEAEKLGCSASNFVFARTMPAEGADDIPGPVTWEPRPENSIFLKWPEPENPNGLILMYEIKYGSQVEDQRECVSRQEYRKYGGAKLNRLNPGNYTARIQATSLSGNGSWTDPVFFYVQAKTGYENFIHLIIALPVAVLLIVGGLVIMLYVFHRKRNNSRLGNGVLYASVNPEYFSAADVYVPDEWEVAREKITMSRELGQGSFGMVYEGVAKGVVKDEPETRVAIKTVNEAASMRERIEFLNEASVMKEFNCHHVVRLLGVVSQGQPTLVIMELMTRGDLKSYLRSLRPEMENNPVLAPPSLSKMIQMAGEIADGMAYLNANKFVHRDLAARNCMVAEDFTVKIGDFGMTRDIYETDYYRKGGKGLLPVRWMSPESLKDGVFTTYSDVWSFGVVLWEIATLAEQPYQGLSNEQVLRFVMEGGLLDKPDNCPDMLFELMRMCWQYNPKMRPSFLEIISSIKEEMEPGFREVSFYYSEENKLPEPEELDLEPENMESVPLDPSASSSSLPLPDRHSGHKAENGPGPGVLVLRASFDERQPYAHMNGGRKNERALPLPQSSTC
DYRK2, sequence (Q92630 whole entry): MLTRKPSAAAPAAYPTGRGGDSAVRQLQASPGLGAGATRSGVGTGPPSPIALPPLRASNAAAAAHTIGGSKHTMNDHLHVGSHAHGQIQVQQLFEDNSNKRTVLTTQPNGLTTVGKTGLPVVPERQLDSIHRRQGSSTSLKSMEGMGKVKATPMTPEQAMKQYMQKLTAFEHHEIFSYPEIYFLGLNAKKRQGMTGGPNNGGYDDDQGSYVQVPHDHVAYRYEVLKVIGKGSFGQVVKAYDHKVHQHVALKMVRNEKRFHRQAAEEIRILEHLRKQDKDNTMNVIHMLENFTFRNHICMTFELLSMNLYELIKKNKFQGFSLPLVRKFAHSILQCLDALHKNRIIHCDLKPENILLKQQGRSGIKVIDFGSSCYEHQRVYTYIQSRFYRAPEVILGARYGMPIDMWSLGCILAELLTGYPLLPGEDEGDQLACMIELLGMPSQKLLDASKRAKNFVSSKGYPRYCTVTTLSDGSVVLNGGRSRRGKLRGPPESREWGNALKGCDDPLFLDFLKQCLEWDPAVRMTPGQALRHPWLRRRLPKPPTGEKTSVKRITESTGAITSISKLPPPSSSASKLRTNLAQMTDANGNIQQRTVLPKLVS

| Structure (SMILES) | inhibition of IFNβ induced STAT1 phosphorylation [1] | number of other kinases inhibited by more than 80% (panel of 139 kinases) | activity remaining in the presence of the inhibitor: BTK (BTK) | activity remaining in the presence of the inhibitor: CDK2-Cyclin A (CDK2-Cyclin A) | activity remaining in the presence of the inhibitor: CHK1 (CHK1) | activity remaining in the presence of the inhibitor: DYRK1A (DYRK1A) | activity remaining in the presence of the inhibitor: DYRK2 (DYRK2) | activity remaining in the presence of the inhibitor: ERK2 (ERK2) | activity remaining in the presence of the inhibitor: ERK8 (ERK8) | activity remaining in the presence of the inhibitor: GCK (GCK) | activity remaining in the presence of the inhibitor: IGF-1R (IGF-1R) | activity remaining in the presence of the inhibitor: JNK1 (JNK1) | activity remaining in the presence of the inhibitor: JNK2 (JNK2) | activity remaining in the presence of the inhibitor: PAK5 (PAK5) | activity remaining in the presence of the inhibitor: PAK6 (PAK6) | activity remaining in the presence of the inhibitor: PHK (PHK) | activity remaining in the presence of the inhibitor: ROCK 2 (ROCK 2) | activity remaining in the presence of the inhibitor: SIK2 (SIK2) | activity remaining in the presence of the inhibitor: TAK1 (TAK1) | activity remaining in the presence of the inhibitor: TGFBR1 (TGFBR1) | also measured |
| --- | --- | --- | --- | --- | --- | --- | --- | --- | --- | --- | --- | --- | --- | --- | --- | --- | --- | --- | --- | --- | --- |
| C=CC(=O)Nc1cccc(CNc2nc(Nc3ccc(N4CCOCC4)cc3)ncc2Cl)c1 [TL8-52] | Some inhibition | 8 | 44 | 84 | 91 | 100 | 87 | 97 | 65 | 21 | 24 | 104 | 95 | 90 | 99 | 78 | 93 | 31 | 39 | 104 | activity remaining in the presence of the inhibitor: TSSK1 (TSSK1): 57; activity remaining in the presence of the inhibitor: TTK (TTK): 49; activity remaining in the presence of the inhibitor: WNK1 (WNK1): 112; activity remaining in the presence of the inhibitor: YES1 (YES1): 47 |
| C=CC(=O)Nc1cccc(CNc2nc(Nc3ccc(N4CCN(C)CC4)cc3OC)ncc2Cl)c1 [TL6-144] |  | 4 | 37 | 87 | 93 | 90 | 92 | 106 | 90 | 92 | 5 | 83 | 98 | 94 | 77 | 40 | 83 | 58 | 77 | 83 | activity remaining in the presence of the inhibitor: TSSK1 (TSSK1): 34; activity remaining in the presence of the inhibitor: TTK (TTK): 96; activity remaining in the presence of the inhibitor: WNK1 (WNK1): 81; activity remaining in the presence of the inhibitor: YES1 (YES1): 89 |
| C=CC(=O)N1C[C@H](Nc2ncnc3[nH]ccc23)CC[C@@H]1C [PF-06651600, 1-((2S,5R)-5-((7H-Pyrrolo[2,3-d]pyrimidin-4-yl)amino)-2-methylpiperidin-1-yl)prop-2-en-1-one, reference compound] | did not block |  |  |  |  |  |  |  |  |  |  |  |  |  |  |  |  |  |  |  |  |

Reference: publication PMC8115619, “Generation of a chemical genetic model for JAK3” (Scientific Reports, 2021)
